Experimental findings from PubChem BioAssay (NCI) are described below.

Among the test systems are LOX IMVI melanoma; IGROV1 ovarian; CAKI-1 renal; SK-MEL-5 melanoma; OVCAR-8 ovarian; UACC-257 melanoma; SK-OV-3 ovarian; SW-620 colon; HCT-116 colon.
Common to all, as to experiment: NCI anticancer screen, dose series, 48 h

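Protocol summary: plate cells (96-well), add compound at 5 concentrations, incubate 48 h, interpolate endpoints linearly. The concentration for 50% growth inhibition is given as GI50. At the TGI there is no net growth.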 Some results are limits rather than exact numbers.

Regarding `N#Cc1ccc(Sc2nc3ccccc3[nH]2)cc1`, the TGI in the experiment with LOX IMVI melanoma, in the experiment on IGROV1 ovarian, with CAKI-1 renal, in the experiment with SK-MEL-5 melanoma, in the experiment on OVCAR-8 ovarian and in the experiment with UACC-257 melanoma was more than 100 µM throughout. Moreover, the TGI in the experiment on SK-OV-3 ovarian and in the experiment on SW-620 colon was more than 100 µM each time.

On to `Cc1ccccc1C(CCCO)C(=O)O` (stereo not drawn), for which the TGI in the experiment on LOX IMVI melanoma, with IGROV1 ovarian, in the experiment with CAKI-1 renal, with SK-MEL-5 melanoma, in the experiment with OVCAR-8 ovarian and in the experiment on UACC-257 melanoma was more than 100 µM in each case. Besides, the TGI with HCT-116 colon, in the experiment with SK-OV-3 ovarian and in the experiment on SW-620 colon was more than 100 µM in each case.

Consider `O=C(c1ccccc1)[C@H]1Nc2ccc(Cl)cc2[C@H]2CCC[C@@H]12`, for which the TGI in the experiment with LOX IMVI melanoma was 19.9 µM; in the experiment on IGROV1 ovarian it was more than 100 µM; in the experiment with CAKI-1 renal it was more than 100 µM; in the experiment on SK-MEL-5 melanoma, 23 µM; in the experiment on OVCAR-8 ovarian it was more than 100 µM; with HCT-116 colon, 41.5 µM. In the experiment on SW-620 colon, the TGI was more than 100 µM.

Consider `CCOC(=O)/C(=C/c1ccccn1)C(=O)c1ccccc1`, for which the TGI in the experiment with LOX IMVI melanoma amounted to 6.94 µM; with IGROV1 ovarian, 32.8 µM; with CAKI-1 renal it was 27.9 µM; with SK-MEL-5 melanoma, 28.6 µM; with OVCAR-8 ovarian, 31.4 µM; with UACC-257 melanoma it was 27.9 µM. Besides, the TGI was 27.3 µM with HCT-116 colon, 36.7 µM in the experiment with SK-OV-3 ovarian and 32.6 µM in the experiment with SW-620 colon.

As to `CCOC(=O)C1=C(NC)OCC1=O`, the TGI in the experiment with LOX IMVI melanoma, in the experiment with IGROV1 ovarian, in the experiment on CAKI-1 renal, in the experiment with SK-MEL-5 melanoma, in the experiment with OVCAR-8 ovarian and with UACC-257 melanoma was more than 100 µM throughout. Further, the TGI with HCT-116 colon, in the experiment on SK-OV-3 ovarian and in the experiment with SW-620 colon was more than 100 µM throughout.

`N#CC1CC(c2ccccc2)Nc2cc(Cl)ccc2N1` (stereo not drawn): the TGI with LOX IMVI melanoma, in the experiment with IGROV1 ovarian, in the experiment on CAKI-1 renal, in the experiment on SK-MEL-5 melanoma, in the experiment on OVCAR-8 ovarian and in the experiment on UACC-257 melanoma was more than 100 µM throughout. Moreover, the TGI in the experiment on HCT-116 colon, with SK-OV-3 ovarian and with SW-620 colon was more than 100 µM throughout.

With `CCc1cccc(CC)c1NC(=O)/C(Cl)=C(/Cl)C(=O)O`, the TGI in the experiment with LOX IMVI melanoma is more than 100 µM; in the experiment on IGROV1 ovarian, 50.4 µM; in the experiment on CAKI-1 renal it was 32.6 µM; in the experiment on SK-MEL-5 melanoma, more than 100 µM; in the experiment with OVCAR-8 ovarian, 33.3 µM; with UACC-257 melanoma, 48.3 µM. Further, the TGI in the experiment with HCT-116 colon was 50.3 µM; in the experiment with SK-OV-3 ovarian, more than 100 µM; in the experiment with SW-620 colon, 46.8 µM.

With `COc1cc(/C=C2\NC(=O)C(Cc3cc(OC)c(OC)c(C)c3OC)N(C(C)=O)C2=O)c(OC)c(C)c1OC` (stereo not drawn), the TGI with LOX IMVI melanoma, in the experiment on IGROV1 ovarian, with CAKI-1 renal, with SK-MEL-5 melanoma, with OVCAR-8 ovarian and in the experiment with UACC-257 melanoma was more than 100 µM in each case. Besides, the TGI with HCT-116 colon, in the experiment with SK-OV-3 ovarian and in the experiment with SW-620 colon was more than 100 µM throughout.

`COC(=O)C(C(=O)C(=O)Nc1c(Cl)cc([N+](=O)[O-])cc1Cl)c1csc(-n2nc(C3=CCCCC3)cc2-c2ccccc2)n1` (stereo not drawn): the TGI in the experiment on LOX IMVI melanoma, with CAKI-1 renal, in the experiment on OVCAR-8 ovarian, in the experiment on UACC-257 melanoma, in the experiment with HCT-116 colon and in the experiment on SK-OV-3 ovarian was more than 100 µM in each case. In the experiment with SW-620 colon, the TGI was more than 100 µM.

Turning to `OC(c1ccccc1Br)(c1ccccc1Br)C(F)(F)F`, the TGI in the experiment on LOX IMVI melanoma is 40.2 µM; in the experiment on IGROV1 ovarian, more than 100 µM; in the experiment with CAKI-1 renal it was more than 100 µM; in the experiment with OVCAR-8 ovarian, more than 100 µM; with UACC-257 melanoma it was 72.9 µM; with HCT-116 colon, 39.4 µM. In addition, the TGI was more than 100 µM with SK-OV-3 ovarian and 36.2 µM with SW-620 colon.

Regarding `COc1ccc2nc(NC(=O)C(=O)CC(=O)c3ccc([N+](=O)[O-])cc3)sc2c1`, the TGI in the experiment on IGROV1 ovarian, in the experiment on CAKI-1 renal, with SK-MEL-5 melanoma, with OVCAR-8 ovarian, in the experiment with UACC-257 melanoma and in the experiment on HCT-116 colon was more than 100 µM throughout. Further, the TGI in the experiment on SK-OV-3 ovarian and with SW-620 colon was more than 100 µM each time.

Turning to `CC(=O)[CH-]C(=O)c1ccccc1.[C-]#[O+].[C-]#[O+].[Ir]`, the GI50 in the experiment on LOX IMVI melanoma, with IGROV1 ovarian, with CAKI-1 renal, in the experiment with SK-MEL-5 melanoma, in the experiment with OVCAR-8 ovarian and in the experiment on UACC-257 melanoma was more than 100 µM throughout. Moreover, the GI50 with SK-OV-3 ovarian and with SW-620 colon was more than 100 µM each time. Further, the TGI with LOX IMVI melanoma, with IGROV1 ovarian, in the experiment with CAKI-1 renal, in the experiment with SK-MEL-5 melanoma, in the experiment on OVCAR-8 ovarian and with UACC-257 melanoma was more than 100 µM each time. Moreover, the TGI with SK-OV-3 ovarian and in the experiment on SW-620 colon was more than 100 µM each time.

For `CCOC(=O)C1(C)CCC(C(C(=O)O)C(=O)O)CC1=O` (stereo not drawn), the TGI with LOX IMVI melanoma, in the experiment with IGROV1 ovarian, in the experiment with CAKI-1 renal, with SK-MEL-5 melanoma, in the experiment with OVCAR-8 ovarian and with UACC-257 melanoma was more than 100 µM each time. Also, the TGI in the experiment on HCT-116 colon, in the experiment with SK-OV-3 ovarian and in the experiment with SW-620 colon was more than 100 µM throughout.

Take `COc1ccc(-c2c(C3=NCCCN3)nnn2-c2ccccc2)cc1`: the TGI in the experiment on LOX IMVI melanoma, with IGROV1 ovarian, in the experiment on CAKI-1 renal, in the experiment with SK-MEL-5 melanoma, in the experiment with OVCAR-8 ovarian and in the experiment on UACC-257 melanoma was more than 100 µM each time. Moreover, the TGI in the experiment on HCT-116 colon, in the experiment with SK-OV-3 ovarian and in the experiment on SW-620 colon was more than 100 µM each time.

For `CCCC(=O)CC(C)C(=O)C(=O)NC12CC3CC(CC(C3)C1)C2` (stereo not drawn), the TGI with LOX IMVI melanoma, in the experiment with CAKI-1 renal, with SK-MEL-5 melanoma, in the experiment with OVCAR-8 ovarian, in the experiment on UACC-257 melanoma and in the experiment on SW-620 colon was more than 100 µM throughout.

In the case of `COc1ccc2c(C(=O)O)cc3ccccc3c2c1OC`, the TGI was 35 µM in the experiment with LOX IMVI melanoma; 56.8 µM with OVCAR-8 ovarian; 35.9 µM in the experiment on UACC-257 melanoma; 32.6 µM in the experiment on HCT-116 colon; more than 100 µM with SK-OV-3 ovarian; 36.4 µM in the experiment on SW-620 colon.

Regarding `O=C1NC(=O)C2C(=O)NC(=O)C1C2Cc1ccco1` (stereo not drawn), the TGI with LOX IMVI melanoma, in the experiment with IGROV1 ovarian, with CAKI-1 renal, with SK-MEL-5 melanoma, with OVCAR-8 ovarian and with UACC-257 melanoma was more than 100 µM throughout. Besides, the TGI with SK-OV-3 ovarian and in the experiment with SW-620 colon was more than 100 µM throughout.

Regarding `CC(=O)OCC(=O)[C@@]1(O)CC[C@H]2[C@@H]3C[C@H](C)C4=CC(=O)C=C[C@]4(C)[C@@]3(F)[C@@H](O)C[C@@]21C`, the TGI in the experiment with LOX IMVI melanoma, in the experiment on IGROV1 ovarian, with CAKI-1 renal, in the experiment with SK-MEL-5 melanoma, in the experiment with UACC-257 melanoma and in the experiment with HCT-116 colon was more than 100 µM throughout. Besides, the TGI in the experiment with SK-OV-3 ovarian and in the experiment on SW-620 colon was more than 100 µM in each case.

As to `COc1ccc2ccccc2c1C1=NC(C)(C)CO1`, the TGI with IGROV1 ovarian, with CAKI-1 renal, in the experiment with SK-MEL-5 melanoma, with OVCAR-8 ovarian, in the experiment on UACC-257 melanoma and with HCT-116 colon was more than 100 µM throughout. The TGI with SK-OV-3 ovarian and with SW-620 colon was more than 100 µM throughout.

Regarding `O=C1N[C@@H]2CCCC[C@@H]2C12CCCCC2`, the TGI in the experiment on LOX IMVI melanoma, in the experiment with IGROV1 ovarian, with OVCAR-8 ovarian, in the experiment on UACC-257 melanoma, with HCT-116 colon and in the experiment with SK-OV-3 ovarian was more than 100 µM in each case. In the experiment with SW-620 colon, this compound gave a TGI of more than 100 µM.

Take `COC(=O)C1=C(C(=O)OC)C2(c3ccccc3)OC1(c1ccccc1)c1cc3ccccc3cc12`: the TGI with LOX IMVI melanoma was determined as 2.71 µM; in the experiment with IGROV1 ovarian it was 3.78 µM; in the experiment with CAKI-1 renal, 2.83 µM; in the experiment on SK-MEL-5 melanoma, 3.69 µM; in the experiment with OVCAR-8 ovarian, 2.96 µM; in the experiment with SK-OV-3 ovarian, 24.4 µM. In the experiment on SW-620 colon, the TGI was determined as 3.51 µM.

Take `CC(=O)Nc1ccc(C2CC(c3ccc([N+](=O)[O-])cc3)=Nc3ccccc3S2=O)cc1` (stereo not drawn): the TGI amounted to 31.8 µM with LOX IMVI melanoma; 34.7 µM in the experiment on IGROV1 ovarian; 48.4 µM in the experiment on SK-MEL-5 melanoma; 89.2 µM with OVCAR-8 ovarian; 95.3 µM in the experiment on UACC-257 melanoma; 70.5 µM in the experiment with SK-OV-3 ovarian. For the same compound, the TGI with SW-620 colon worked out at 62.4 µM.

As to `CCOC(=O)c1ccc(N=Nc2ccc(N(CCC#N)CCC#N)cc2C)cc1`, the TGI in the experiment with LOX IMVI melanoma, in the experiment with IGROV1 ovarian, in the experiment with CAKI-1 renal, in the experiment with SK-MEL-5 melanoma, in the experiment on OVCAR-8 ovarian and with UACC-257 melanoma was more than 100 µM throughout. Also, the TGI in the experiment on SK-OV-3 ovarian and in the experiment with SW-620 colon was more than 100 µM in each case.

As for `CC12OC(=O)C(C#N)C1(C)C1C(=O)CCCC12` (stereo not drawn), the TGI with LOX IMVI melanoma, in the experiment with IGROV1 ovarian, in the experiment with SK-MEL-5 melanoma, in the experiment on OVCAR-8 ovarian, in the experiment on HCT-116 colon and in the experiment with SK-OV-3 ovarian was more than 100 µM in each case. This compound also gave a TGI with SW-620 colon of more than 100 µM.
